From ChEMBL document CHEMBL1201862, “PubChem BioAssay data set” (2004)
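Exposure lasted 48 hours, with cells grown in 96-well plates and compounds tested at five concentrations. GI50 marks 50% less growth.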 Active and inactive are the calls of the source. No stated cut-off is given here; in the data, active = GI50 up to about 1.1 µM and inactive = higher.

Legend:
Assay in all cases: NCI anticancer screen, dose series, 48 h
RXF 393 = tested on: RXF 393
MDA-N = tested on: MDA-N
HOP-92 = tested on: HOP-92
MOLT-4 = tested on: MOLT-4
HCT-116 = tested on: HCT-116
MDA-MB-231 = tested on: MDA-MB-231
Malme-3M = tested on: Malme-3M
NCI-H460 = tested on: NCI-H460
COLO 205 = tested on: COLO 205
UO-31 = tested on: UO-31
EKVX = tested on: EKVX
T47D = tested on: T47D
SK-MEL-5 = tested on: SK-MEL-5
OVCAR-4 = tested on: OVCAR-4
LOX IMVI = tested on: LOX IMVI
SF-268 = tested on: SF-268
UACC-257 = tested on: UACC-257
HCC 2998 = tested on: HCC 2998
DU-145 = tested on: DU-145
NCI-H226 = tested on: NCI-H226

Compound | GI50 (RXF 393) | GI50 (MDA-N) | GI50 (HOP-92) | GI50 (MOLT-4) | GI50 (HCT-116) | GI50 (MDA-MB-231) | GI50 (Malme-3M) | GI50 (NCI-H460) | GI50 (COLO 205) | GI50 (UO-31) | GI50 (EKVX) | GI50 (T47D) | GI50 (SK-MEL-5) | GI50 (OVCAR-4) | GI50 (LOX IMVI) | GI50 (SF-268) | GI50 (UACC-257) | GI50 (HCC 2998) | GI50 (DU-145) | GI50 (NCI-H226)
CC(=O)O[C@H]1C[C@](C)(O)[C@@]23CC([C@@H](OC(=O)C(C)(C)O)[C@@H](OC(C)=O)C2(COC(=O)c2ccccc2)[C@H]1OC(C)=O)C(C)(C)O3 (some centres undefined) | > 100 µM (inactive) | > 100 µM (inactive) | 60.3 µM (inactive) | 31.4 µM (inactive) | > 100 µM (inactive) | 16.8 µM (inactive) | > 100 µM (inactive) | > 100 µM (inactive) | > 100 µM (inactive) | > 100 µM (inactive) | > 100 µM (inactive) | > 100 µM (inactive) | 77.6 µM (inactive) | > 100 µM (inactive) | 61.5 µM (inactive) | > 100 µM (inactive) | > 100 µM (inactive) | > 100 µM (inactive) | > 100 µM (inactive) | –
CCOC(=O)c1nc2ccc(C(F)(F)F)cc2nc1Nc1ccc(Cl)c(Cl)c1 | > 100 µM (inactive) | 96.8 µM (inactive) | > 100 µM (inactive) | > 100 µM (inactive) | 64.7 µM (inactive) | 60 µM (inactive) | > 100 µM (inactive) | > 100 µM (inactive) | > 100 µM (inactive) | > 100 µM (inactive) | > 100 µM (inactive) | > 100 µM (inactive) | > 100 µM (inactive) | – | > 100 µM (inactive) | > 100 µM (inactive) | > 100 µM (inactive) | 39.5 µM (inactive) | 70.6 µM (inactive) | –
N#CCCC1C(C#N)C2CC1C1C3C=CC(C3)C21 (centres undefined) | 63.4 µM (inactive) | > 100 µM (inactive) | > 100 µM (inactive) | > 100 µM (inactive) | > 100 µM (inactive) | > 100 µM (inactive) | > 100 µM (inactive) | – | > 100 µM (inactive) | > 100 µM (inactive) | > 100 µM (inactive) | > 100 µM (inactive) | > 100 µM (inactive) | > 100 µM (inactive) | > 100 µM (inactive) | > 100 µM (inactive) | > 100 µM (inactive) | > 100 µM (inactive) | > 100 µM (inactive) | > 100 µM (inactive)
Cc1ccc(C(=O)N(Cc2ccccc2)Cc2ccccc2)cc1/N=N/N(C)C | – | 30.2 µM (inactive) | 11.9 µM (inactive) | 26.4 µM (inactive) | 8.39 µM (inactive) | 22.9 µM (inactive) | 18.2 µM (inactive) | 14.7 µM (inactive) | 21.5 µM (inactive) | 15.6 µM (inactive) | 35.3 µM (inactive) | 14.8 µM (inactive) | 10.7 µM (inactive) | 11.2 µM (inactive) | 7.23 µM (inactive) | 18.5 µM (inactive) | 6.75 µM (inactive) | 29.6 µM (inactive) | 36.6 µM (inactive) | 19.1 µM (inactive)
COc1ccc(Nc2nc(N)c(C(=O)c3ccc(Cl)cc3)s2)cc1 | < 0.01 µM (active) | < 0.01 µM (active) | 18.2 µM (inactive) | < 0.01 µM (active) | < 0.01 µM (active) | 0.047 µM (active) | – | < 0.01 µM (active) | 0.0261 µM (active) | < 0.01 µM (active) | 39.6 µM (inactive) | 24 µM (inactive) | 0.0123 µM (active) | 0.121 µM (active) | < 0.01 µM (active) | 0.297 µM (active) | 42.9 µM (inactive) | 0.0357 µM (active) | < 0.01 µM (active) | 0.018 µM (active)
